# Test results published in patent US6451544B2, “Identification of agents that protect against inflammatory injury to neurons” (Baylor College of Medicine, priority 1996, dated 2002).
# Entries after “also recorded” stand apart in the source; their conditions may differ. Peptide text beside a SMILES is read from it.
# How the values were obtained:
# [1] = system: rat microglia stimulated with Aβ1-42; human microglia stimulated with fraction S5; test: Drug blockade of Aβ induced neuron killing by rat and human microglia; format: cell-based; details: vitamin E 100 μM, catalase 25 units/ml, glutathione 100 μM, L-NIO 10 μM, DPI 300 nM, glutamate antagonists 10 μM
# Excerpt: A number of cytotoxic factors have been reported to participate in Aβ neurotoxicity, including radicals (Behl et al., 1994), nitric oxide (Meda et al., 1995), cytokines (Mrak et al., 1995), and NMDA-like molecules (Giulian et al., 1995a).
# [2] = format: physicochemical
# Description: Properties and sources of amyloid peptides. […] Solubility of peptides is described for chemically-defined culture media at 37° C.
# [3] = system: HEK cells expressing NMDA1b/2A; test: NTox exposure of HEK cells expressing NMDA receptors (trypan blue); format: cell-based, human
# Description: FIG. 6A) Photomicrograph of trypan blue(+) control HEK cells exposed to NTox.
# Presence of neurotoxic activity will be determined by reduction in cell number, changes in biochemical markers such as loss of cell metabolic function, release of intracellular material, penetration of impermeant dyes, such as and not limited to fluorescent nuclear dyes and trypan blue (FIG. 6), reduction of the number of neurons, loss of neurofilament or synaptophysin, release of lactate dehydrogenase, or other evidence of cell injury.
# [4] = system: microglia stimulated by Aβ1-42; test: In vitro screening of drugs which inactivate microglia stimulated by Aβ1-42; format: cell-based; details: mixed with Aβ peptides; for prevention of neurotoxic microglia, signal transduction inhibitors: test concentrations 0.01 to 100 μM
# Excerpt: Such in vitro assays permit rapid screening of drugs with therapeutic potential for Alzheimer Disease.
# Such in vitro assays permit rapid screening of drugs which serve as lead compounds for development of therapeutics for Alzheimer Disease.
# Once activated by plaque components, microglia release neurotoxic agents. Although many drugs are known to suppress the immune system outside the brain, it is not known which drugs actually have the ability to inactivative plaque-stimulated microglia within the brain and thus prevent the immune-mediated damage caused by Alzheimer Disease. […] Activated microglia also require intracellular events signaled by signal transducers, to convert the plaque or Aβ complex formation with microglia into cellular events which lead to the production and release of neurotoxins including NTox. […] Thus, the use of the microglia-neuron assay systems allowed identification of specific drug families with value in the treatment of Alzheimer Disease.
# neurons = test: Neuroprotective effects of NTox-like compounds; format: cell-based
# brain neocortex = test: Microsphere implants in brain neocortex; format: in vivo
# Excerpt: FIGS. 7A, B, and C show SpheresAβ1-42 in vivo. Weeks after implantation of large microspheres (250 micron diameter) remain embedded within brain neocortex (FIG. 7A). […] Microglia were visualized by uptake of fluorescent labeled acetylated LDL, Dil-ac-LDL Bar=40 μm, FIG. 7A; 25 μm FIGS. 7B and C.
# Data support histological changes.
# In vivo binding, activation, and neurotoxicity assays involve infusion of a tagged plaque component coupled to a solid support such as microspheres (FIG. 7) into a mammalian brain. Following infusion of materials, a test compound may be co-injected into the brain intraventricularly or intracranially by cannula with delivery systems including syringes or implanted osmotic pumps. A test compound may also be delivered systemically by intraperitoneal, intravenous, intra-arterial, nasal, or oral routes. Evidence of immune activation of the brain by a plaque component may be monitored using histological, biochemical, or molecular methods such as quantitative reverse transcriptase polymerase chain reaction method to identify cell markers of immune responses including surface proteins, enzymes, or cytokines (FIG. 8). The production of neurotoxic activity may be assayed by histochemical (FIG. 7) or biochemical to identify cell markers of immune responses including injury or destruction of neurons. […]
# rat microglia = test: Binding of Aβ peptide-coupled fluorescent microspheres to microglia; details: 1 micron fluorescent microspheres
# Description: Fluoresbrite carboxylate microspheres (YG 1.0 μm, Polysciences; 0.5 ml of a 2.5% suspension) were washed twice in 0.1 M carbonate buffer (pH 9.6) and three times in 0.02 M sodium phosphate (pH 4.5). Carbodiimide was then added dropwise to a final concentration of 1% and the suspension mixed for 4 hours at room temperature. Following 3 more washes in 0.02M sodium phosphate, the pellet was resuspended in 1.2 ml of 0.2 M borate buffer (pH 8.5) and 300 μg Aβ (or control peptide) and 5% DMSO added. After overnight mixing at room temperature, the microspheres were blocked by 1 M glycine (pH 8.0) for 30 minutes and washed in 10 mg/ml BSA in phosphate buffer.
# To delineate further which portions of the Aβ peptide served as a microglial binding site, a variety of synthetic peptides coupled to 1 micron diameter microspheres was next compared.
# [5] = system: rat hippocampal cultures supplemented with microglia; test: Neurotoxicity assay: hippocampal neuron cultures supplemented with microglia (induction of neurotoxic microglia); format: cell-based
# Description: Rat microglia were isolated from newborn animals using the method of Giulian and Baker, 1986, with recovery of >98% homogenous population monitored by binding the fluorescent probe acetylated low density lipoprotein labeled with 1,1′-dioctadecyl-3,3,3′,3′-tetramethyl-indo-carbocyanine [Dil-ac-LDL]). Amyloid proteins were isolated from AD neocortical gray matter laden with neuritic and core plaques with final separations involving a discontinuous sucrose gradient. […] Cultured neurons prepared from rat hippocampus consisted of process-bearing neurons (10-20% of total cell population) atop a bed of astroglia (>70%) mixed with microglia (5-10%). In order to eliminate microglia, cultures were exposed saporin (a ribosome-inactivating protein) coupled to acetylated LDL (ac-LDL) for 10 pg/ml for 18 hours. […] After 14 days in vitro, cultures (with a final concentration of 0.6% serum) were exposed to test substances in the presence or absence of exogenous microglia for 72 hours. […] Data were expressed as % mean survival expressed in terms of parallel untreated control cultures after scoring at least 8 randomly selected fields for each of 3 coverslips from at least 3 independent experiments. […]
# microglia = test: SpheresAβ1-42 binding to microglia; design: species or system rat; details: for SpheresAβ1-42 binding to microglia in presence of GAGs or scavenger receptor ligands: heparin sulfate 50 μg/ml, dextran sulfate 500 μg/ml, ac-LDL 200 μg/ml
# Description: (§1) Isolated microglia (1000 per mm^2 ) were placed atop 16 mm glass coverslips in 24-well culture plates. Each well then received 250,000 SpheresAβ1-42 or Spheresmal-BSA in the presence or absence of Aβ peptides, GAGs, or scavenger receptor ligands. Binding assays were carried out at 37° C. for 4 hours after which coverslips were dipped 10 times in phosphate buffer and fixed with 4% buffered paraformaldehyde. Microsphere adherence to cells was scored at 200 magnification with phase/fluorescence microscopy. Data, expressed as % inhibition of sphere binding, was calculated from total number of spheres per field noted for control cultures receiving spheres only. Values are based upon at least 3 coverslips from 2 independent experiments. Fluoresbrite carboxylate YG microspheres (1.0 micron diameters; 0.5 ml of a 2.5% suspension) were activated with 1% carbodiimide for 4 hr at room temperature. Washed spheres were resuspended in 0.2 M borate buffer (pH 8.5) in the presence of 300 μg Aβ or 400 μg BSA in 6% DMSO. After overnight mixing at room temperature, the spheres were washed extensively and blocked by 1 M glycine (pH 8.0) for 30 minutes. Maleylation of coupled BSA was carried out at room temperature by adding 1 M maleic anhdyride in acetonitrile at pH 9.0.
# scavenger receptors = test: Spheresmal-BSA binding to microglia; design: species or system rat
# Description: as §1
# [6] = trypsin 5000 units/ml 60 min, heparinase 2 x 0.01 units/ml, chondroitinase ABC 2 x 0.02 units/ml
molecule,measurement,setting,value
NC(CCCP(=O)(O)O)C(=O)O (stereo not drawn) [AP5],protection against microglia-mediated neuron killing,[1],prevented neuronal loss; also recorded: prevented neuron death
NC(CCCCCP(=O)(O)O)C(=O)O (stereo not drawn) [AP7],protection against microglia-mediated neuron killing,[1],prevented neuronal loss; also recorded: blocked neuron death
CC(C)C[C@H](NC(=O)[C@H](CCCCN)NC(=O)[C@H](CCC(N)=O)NC(=O)[C@H](Cc1cnc[nH]1)NC(=O)[C@H](Cc1cnc[nH]1)NC(=O)[C@@H](N)C(C)C)C(=O)N[C@H](C(=O)N[C@@H](Cc1ccccc1)C(=O)N[C@@H](Cc1ccccc1)C(=O)N[C@@H](C)C(=O)N[C@@H](CCC(=O)O)C(=O)N[C@@H](CC(=O)O)C(=O)N[C@H](C(=O)NCC(=O)N[C@@H](CO)C(=O)N[C@@H](CC(N)=O)C(=O)N[C@@H](CCCCN)C(=O)O)C(C)C)C(C)C [Aβ12-28],Solubility,[2],soluble
CC[C@H](C)[C@H](NC(=O)[C@H](C)NC(=O)CNC(=O)[C@H](CCCCN)NC(=O)[C@H](CC(N)=O)NC(=O)[C@H](CO)NC(=O)CNC(=O)[C@@H](NC(=O)[C@H](CC(=O)O)NC(=O)[C@H](CCC(=O)O)NC(=O)[C@H](C)NC(=O)[C@H](Cc1ccccc1)NC(=O)[C@H](Cc1ccccc1)NC(=O)[C@@H](NC(=O)[C@@H](N)CC(C)C)C(C)C)C(C)C)C(=O)N[C@H](C(=O)NCC(=O)N[C@@H](CC(C)C)C(=O)N[C@@H](CCSC)C(=O)N[C@H](C(=O)NCC(=O)NCC(=O)N[C@H](C(=O)N[C@H](C(=O)N[C@H](C(=O)N[C@@H](C)C(=O)O)[C@@H](C)CC)C(C)C)C(C)C)C(C)C)[C@@H](C)CC [Aβ17-42] (H-LVFFAEDVGSNKGAIIGLMVGGVVIA-OH; N-terminus and C-terminus assumed),Solubility,[2],very insoluble
CC[C@H](C)[C@H](NC(=O)[C@H](C)NC(=O)CNC(=O)[C@H](CCCCN)NC(=O)[C@H](CC(N)=O)NC(=O)[C@H](CO)NC(=O)CN)C(=O)N[C@H](C(=O)NCC(=O)N[C@@H](CC(C)C)C(=O)N[C@@H](CCSC)C(=O)O)[C@@H](C)CC [Aβ25-35] (H-GSNKGAIIGLM-OH; N-terminus and C-terminus assumed),Solubility,[2],soluble
"c1ccc([I+]c2ccccc2)cc1 [DPI, diphenyl iodonium]",protection against microglia-mediated neuron killing,[1],no reduction of microglia-mediated neuron killing; also recorded: No protective effects were observed
N[C@H](CCC(=O)NCS(=O)(=O)O)C(=O)O [GAMS],protection against microglia-mediated neuron killing,[1],did not
"CC(=N)NCCC[C@H](N)C(=O)O.Cl [L-NIO, L-N-5-(1-imin-oethyl)ornithine hydrochloride]",protection against microglia-mediated neuron killing,[1]; hydrochloride,no reduction of microglia-mediated neuron killing; also recorded: No protective effects were observed
C[C@]12N[C@H](Cc3ccccc31)c1ccccc12 [MK-801],blockade of NTox killing effect,[3],could be blocked
same,protection against microglia-mediated neuron killing,[1],prevented neuronal loss
same,protection against microglia-mediated neuron killing,[1]; listed as MK801,blocked neuron death
CCN(CC)CCCC(C)Nc1ccnc2cc(Cl)ccc12 (stereo not drawn) [chloroquine],"prevention of neurotoxic microglia, immuno-suppressive drugs",[4]; test concentrations 0.1 to 10 μM,had a protective effect; also recorded: block neuron killing
COc1c(C=O)c(O)cc2c1C(=O)c1ccccc1C2=O [damacanthal],"prevention of neurotoxic microglia, signal transduction inhibitors",[4],had a protective effect
O=c1c(-c2ccc(O)cc2)coc2cc(O)cc(O)c12 [genistein],"prevention of neurotoxic microglia, signal transduction inhibitors",[4],had a protective effect
N[C@@H](CCC(=O)N[C@@H](CS)C(=O)NCC(=O)O)C(=O)O [glutathione],protection against microglia-mediated neuron killing,[1],no reduction of microglia-mediated neuron killing; also recorded: did not block microglial killing of neurons
CC(C(O)c1ccc(O)cc1)N1CCC(Cc2ccccc2)CC1 (stereo not drawn) [ifenprodil],protection against microglia-mediated neuron killing,[1],prevented neuronal loss; also recorded: blocked neuron death
NCCc1ccc(O)cc1 [tyramine],protection of neurons against quinolinic acid,neurons; 100 μM quinolinic acid (QUIN),protective effect did not occur; also recorded: did not block
same,protection of neurons against NTox / Aβ1-42-stimulated microglia,neurons; microglia stimulated with Aβ1-42 or isolated NTox applied to neurons,prevented neuronal injury; also recorded: did not damage neurons in the presence of tyramine
SpheresAβ1-42: Aβ1-42 coupled to microspheres,reactive microglia around implanted microspheres,"brain neocortex; 250 micron spheres, weeks after implantation",chronically stimulate the presence of reactive cells
same,increase in scavenger receptor II mRNA in tissue surrounding implant,"brain neocortex; two weeks after implantation, vs undamaged control tissue or SphereBSA",5 fold
same,uptake of peptide-coupled microspheres by microglia in culture,rat microglia,rapidly engulfed by cultured microglia
same,"capacity to elicit neurotoxic microglia, coupled to microspheres or in solution","[5]; 250,000 microspheres per culture, 100,000 microglia per culture, 72 hour incubation",induced neuron killing
catalase,protection against microglia-mediated neuron killing,[1],no reduction of microglia-mediated neuron killing; also recorded: did not block microglial killing of neurons
chondroitin sulfate,SpheresAβ1-42 binding to microglia in presence of GAGs or scavenger receptor ligands,microglia,not similar compounds; also recorded: only heparin sulfate blocked
dextran sulfate,Spheresmal-BSA binding to microglia in presence of ligands,"scavenger receptors; dextran sulfate 500 μg/ml, ac-LDL 200 μg/ml, Aβ1-16 10 μmole/l",blocked Spheresmal-BSA binding
same,SpheresAβ1-42 binding to microglia in presence of GAGs or scavenger receptor ligands,microglia,not similar compounds
same,SpheresAβ1-42 binding to microglia in presence of GAGs or scavenger receptor ligands,microglia; listed as dextm sulfate,only heparin sulfate blocked
heparin sulfate,SpheresAβ1-42 binding to microglia in presence of GAGs or scavenger receptor ligands,microglia,reduction of binding; also recorded: blocked SpheresAβ1-42 binding
same,SpheresAβ1-42 binding to microglia in presence of GAGs or scavenger receptor ligands,microglia; listed as heparan sulfate,block Aβ binding to microglia
"rodent Aβ1-42: rodent form of Aβ1-42 (DAEFGHDSGFEVRHQKLVFFAEDVGSNKGAIIGLMVGGVVIA; Amyloid-beta protein 42; UniProt P12023 672-713, looked up, fragment)",induction of neurotoxic microglia / neuron killing in presence of microglia,"[5]; peptide in solution, typically 1 μmole/l, 72 hours, microglia 500 per mm^2",does not induce toxicity
trypsin,Spheresmal-BSA binding after enzymatic pre-treatment of microglia,scavenger receptors; [6],reduced
same,SpheresAβ1-42 binding after enzymatic pre-treatment of microglia,microglia; [6],reduced
vitamin E,protection against microglia-mediated neuron killing,[1],no reduction of microglia-mediated neuron killing; also recorded: did not block microglial killing of neurons
